{"source": "patent US8093052B2", "about": "“Serum-free culture medium for the production of recombinant gonadotropins” (Ares Trading S.A., priority 2005, dated 2012)", "key": {"oxidized forms of rFSH": {"tested_on": "oxidized forms of rFSH", "test": "Oxidized forms of rFSH by RP-HPLC on crude harvest of CHO culture in serum-free medium with antioxidant", "format": "cell-based, human", "conditions": "for ranking of antioxidants for obtaining low levels of rFSH oxidized forms: Runs 1 and 2, Table II; for antioxidant quality from analyses of oxidized rFSH forms: antioxidant added to the culture medium, runs 3 to 5", "experimental": "(§1) All experiments were performed with a CHO cell line expressing both subunits of human FSH. The produced protein is a dimeric gonadotropin further referred to as rFSH. The alpha subunit corresponds to SwissProt Accession No. P01215 and the beta subunit corresponds to SwissProt Accession No. P01225.\nThe medium used for cell cultivation was a basic serum-free medium (SFM) designed for cultivation of CHO cells. The SFM medium was supplemented with the antioxidant to be tested as detailed in Example 3.\n(§2) At least 2.4.10^9 viable rFSH-producing cells were transferred to a 15 L bioreactor with an effective working volume of 11 L (newMBR, Zürich) comprising microcarriers. Immediately after seeding followed a batch phase that lasted for two or three days. The bioreactor was then continuously fed with SFM to a dilution rate of 1 day^−1 and to a perfusion rate at 11 L·day)^−1.\nGrowth phase and production phase were performed at the same pH and temperature (37° C., pH=7). The Dissolved Oxygen (DO) was maintained at 50% air saturation during the whole run.\nOxidized forms were determined by RP-HPLC on crude harvest as described by Bassett and Driebergen (Bassett and Driebergen, 2005).\nSFM was supplemented with several antioxidant or combination of antioxidants in order to reach the final concentration shown in Table II. Each antioxidant or combination of antioxidants was tested for a period of about ten days. The first day of the test, the volume of antioxidant solution necessary to reach the set-point was added. Every day thereafter, a certain amount of antioxidant was washed out from the bioreactor by perfusion and replaced by one time addition (for a dilution rate of 1 d^−1, 63.2% of the bioreactor volume was renewed every 24 h and this represents the amount of antioxidant to be replaced every day). At the end of the test period, the antioxidant was washed out from the bioreactor by perfusion, and replaced by another antioxidant to be tested.\nThe percentage of oxidized forms of rFSH was measured at the end of each test (table II).\nOne run (run 3) was performed to test various concentrations of L-glutathione (from 1 to 20 mg/L), and one run (run 4) was performed to test various concentrations of L-methionine (from 0.25 to 3 g/L) and. […] Working Day zero (WDO) is defined as the day during which the bioreactor is seeded. Production Day zero (PDO) is defined as the day during which the cell culture process is switch from growth phase to production phase. In addition, a run was performed without varying the antioxidant concentration. In this run, the L-methionine was added at 250 mg/L from the beginning (run 5). For all runs, the percentage of oxidized forms of rFSH was measured regularly (table IV)."}, "[1]": {"tested_on": "CHO cell line expressing both subunits of human FSH", "test": "Total viable cells ratio (TVC ratio) during antioxidant test period", "format": "cell-based, Chinese Hamster", "conditions": "end of test/start of test, >=1.0 = no toxic effect", "experimental": "as §1, §2\nThe total viable cell concentration is defined as the sum of the concentration of cells attached on microcarriers and the concentration of viable cells in suspension.\nThe Total Viable Cells Ratio (TVC Ratio) for was calculated as follows: [total viable cell concentration, end of test]/[total viable cell concentration, start of test] wherein the start of test is defined as the day at which a new antioxidant is introduced in the culture, and the end of test is defined as the day before the next antioxidant is introduced in the culture.\n(§3) The total viable cell concentration, the GCR and the rFSH titers were measured daily."}, "[2]": {"tested_on": "CHO cell line expressing both subunits of human FSH", "experimental": "The rFSH titer was measured by an immunofluorimetric assay, using the Delphia hFSH kit from Wallac-ADL (Cat. No. A017-201).\nThe glucose consumption rate (GCR), expressed in gram per liter and per day, was calculated as follows: GCR=(G0−Gt)Dt+(Gt−1−Gt)\nG stands for “Glucose concentration” and D stands for “dilution rate”. The indexes refer to the following:\nas §3"}}, "note": "Read-outs that look alike come from different tables or passages of the source."}
{"smiles": "OCCS", "note": "[2-mercaptoethanol]", "values": [{"measurement": "oxidized forms (normalized value)", "setting": "oxidized forms of rFSH; Run 1, 10 mg/L, measured WD59, divided by 23.4% (L-cysteine 280 mg/L, run 2)", "value": 0.53}, {"measurement": "% of oxidized forms", "setting": "oxidized forms of rFSH; Run 1, mean concentration 10 mg/L, tested WD50 to WD60, measured WD59", "value": 12.3, "unit": "%"}, {"measurement": "ranking of antioxidants for obtaining low levels of rFSH oxidized forms", "setting": "oxidized forms of rFSH", "value": "best antioxidants for obtaining low levels of rFSH oxidized forms"}, {"measurement": "TVC Ratio", "setting": "[1]; Run 1, 10 mg/L, WD50 to WD60", "value": 0.8}]}
{"smiles": "O=C1O[C@H]([C@@H](O)CO)C(O)=C1O", "note": "[L-ascorbic acid]", "values": [{"measurement": "oxidized forms (normalized value)", "setting": "oxidized forms of rFSH; Run 1, 10 mg/L, measured WD30, divided by 23.4% (L-cysteine 280 mg/L, run 2)", "value": 0.74}, {"measurement": "% of oxidized forms", "setting": "oxidized forms of rFSH; Run 1, mean concentration 10 mg/L, tested WD20 to WD30, measured WD30", "value": 17.3, "unit": "%"}, {"measurement": "TVC Ratio", "setting": "[1]; Run 1, 10 mg/L, WD20 to WD30", "value": 1.3}]}
{"smiles": "N[C@@H](CS)C(=O)O", "note": "[L-cysteine, reference compound]", "values": [{"measurement": "oxidized forms (normalized value)", "setting": "oxidized forms of rFSH; Run 1, 280 mg/L, measured WD20, divided by 23.4% (L-cysteine 280 mg/L, run 2)", "value": 0.92}, {"measurement": "% of oxidized forms", "setting": "oxidized forms of rFSH; Run 1, mean concentration 280 mg/L, tested WD10 to WD20, measured WD20", "value": 21.5, "unit": "%"}, {"measurement": "oxidized forms (normalized value)", "setting": "oxidized forms of rFSH; Run 2, 280 mg/L, measured WD20, the reference itself (23.4%)", "value": 1.00}, {"measurement": "oxidized forms (normalized value)", "setting": "oxidized forms of rFSH; Run 2, 350 mg/L, measured WD50, divided by 23.4% (L-cysteine 280 mg/L, run 2)", "value": 0.88}, {"measurement": "% of oxidized forms", "setting": "oxidized forms of rFSH; Run 2, mean concentration 280 mg/L, tested WD0 to WD20, measured WD20", "value": 23.4, "unit": "%"}, {"measurement": "% of oxidized forms", "setting": "oxidized forms of rFSH; Run 2, mean concentration 350 mg/L, tested WD40 to WD50, measured WD50", "value": 20.5, "unit": "%"}]}
{"smiles": "N[C@@H](CCC(=O)N[C@@H](CS)C(=O)NCC(=O)O)C(=O)O", "note": "[L-glutathione]", "values": [{"measurement": "oxidized forms (normalized value)", "setting": "oxidized forms of rFSH; Run 1, 3 mg/L, measured WD50, divided by 23.4% (L-cysteine 280 mg/L, run 2)", "value": 0.61}, {"measurement": "% of oxidized forms", "setting": "oxidized forms of rFSH; Run 1, mean concentration 3 mg/L, tested WD40 to WD50, measured WD50", "value": 14.2, "unit": "%"}, {"measurement": "decrease of percentage of oxidized forms", "setting": "oxidized forms of rFSH; Run 3, 2.5 mg/L, compared to run 1 and run 2 with L-cysteine as antioxidant", "value": "around 35%"}, {"measurement": "% oxidized forms", "setting": "oxidized forms of rFSH; Run 3, mean concentration 1 mg/L, measured WD19", "value": 18.31, "unit": "%"}, {"measurement": "% oxidized forms", "setting": "oxidized forms of rFSH; Run 3, mean concentration 2.5 mg/L, measured WD28", "value": 14.26, "unit": "%"}, {"measurement": "% oxidized forms", "setting": "oxidized forms of rFSH; Run 3, mean concentration 5 mg/L, measured WD40", "value": 23.99, "unit": "%"}, {"measurement": "ranking of antioxidants for obtaining low levels of rFSH oxidized forms", "setting": "oxidized forms of rFSH", "value": "best antioxidants for obtaining low levels of rFSH oxidized forms"}, {"measurement": "antioxidant quality from analyses of oxidized rFSH forms", "setting": "oxidized forms of rFSH", "value": "good antioxidant"}, {"measurement": "TVC Ratio", "setting": "[1]; Run 1, 3 mg/L, WD40 to WD50", "value": 1.2}, {"measurement": "impact on viability of the cells, metabolism and productivity patterns", "setting": "[2]", "value": "did not have any major impact"}]}
{"smiles": "CSCC[C@H](N)C(=O)O", "note": "[L-methionine]", "values": [{"measurement": "oxidized forms (normalized value)", "setting": "oxidized forms of rFSH; Run 1, 186 mg/L, measured WD38, divided by 23.4% (L-cysteine 280 mg/L, run 2)", "value": 0.61}, {"measurement": "oxidized forms (normalized value)", "setting": "oxidized forms of rFSH; Run 1, 734 mg/L, measured WD70, divided by 23.4% (L-cysteine 280 mg/L, run 2)", "value": 0.60}, {"measurement": "% of oxidized forms", "setting": "oxidized forms of rFSH; Run 1, mean concentration 186 mg/L, tested WD30 to WD40, measured WD38", "value": 14.3, "unit": "%"}, {"measurement": "% of oxidized forms", "setting": "oxidized forms of rFSH; Run 1, mean concentration 734 mg/L, tested WD60 to WD70, measured WD70", "value": 14.0, "unit": "%"}, {"measurement": "% oxidized forms", "setting": "oxidized forms of rFSH; Run 4, mean concentration 250 mg/L, measured WD19", "value": 15.37, "unit": "%"}, {"measurement": "% oxidized forms", "setting": "oxidized forms of rFSH; Run 4, mean concentration 500 mg/L, measured WD28", "value": 14.26, "unit": "%"}, {"measurement": "% oxidized forms", "setting": "oxidized forms of rFSH; Run 4, mean concentration 1000 mg/L, measured WD40", "value": 13.56, "unit": "%"}, {"measurement": "% oxidized forms", "setting": "oxidized forms of rFSH; Run 4, mean concentration 2000 mg/L, measured WD49", "value": 9.77, "unit": "%"}, {"measurement": "% oxidized forms", "setting": "oxidized forms of rFSH; Run 4, mean concentration 3000 mg/L, measured WD59", "value": 12.66, "unit": "%"}, {"measurement": "% oxidized forms", "setting": "oxidized forms of rFSH; Run 5, 250 mg/L from the beginning, measured WD16-17", "value": 16.91, "unit": "%"}, {"measurement": "% oxidized forms", "setting": "oxidized forms of rFSH; Run 5, 250 mg/L from the beginning, measured WD20-21", "value": 14.45, "unit": "%"}, {"measurement": "% oxidized forms", "setting": "oxidized forms of rFSH; Run 5, 250 mg/L from the beginning, measured WD22-23", "value": 12.94, "unit": "%"}, {"measurement": "% oxidized forms", "setting": "oxidized forms of rFSH; Run 5, 250 mg/L from the beginning, measured WD24-25", "value": 12.16, "unit": "%"}, {"measurement": "% oxidized forms", "setting": "oxidized forms of rFSH; Run 5, 250 mg/L from the beginning, measured WD26-27", "value": 10.54, "unit": "%"}, {"measurement": "% oxidized forms", "setting": "oxidized forms of rFSH; Run 5, 250 mg/L from the beginning, measured WD28-29", "value": 12.83, "unit": "%"}, {"measurement": "% oxidized forms", "setting": "oxidized forms of rFSH; Run 5, 250 mg/L from the beginning, measured WD30-31", "value": 13.21, "unit": "%"}, {"measurement": "decrease of average percentage of oxidized forms", "setting": "oxidized forms of rFSH; Run 5, 250 mg/L, compared to run 1 and run 2 with L-cysteine as antioxidant", "value": "around 40%"}, {"measurement": "ranking of antioxidants for obtaining low levels of rFSH oxidized forms", "setting": "oxidized forms of rFSH", "value": "best antioxidants for obtaining low levels of rFSH oxidized forms"}, {"measurement": "antioxidant quality from analyses of oxidized rFSH forms", "setting": "oxidized forms of rFSH", "value": "good antioxidant"}, {"measurement": "TVC Ratio", "setting": "[1]; Run 1, 186 mg/L, WD30 to WD40", "value": 1.4}, {"measurement": "TVC Ratio", "setting": "[1]; Run 1, 734 mg/L, WD60 to WD70", "value": 1.0}, {"measurement": "impact on viability of the cells, metabolism and productivity patterns", "setting": "[2]; in the range of concentration tested (runs 3 to 5), data not shown", "value": "did not have any major impact"}]}
{"smiles": "CC(=O)N[C@@H](CS)C(=O)O", "note": "[N-acetyl-L-cysteine]", "values": [{"measurement": "oxidized forms (normalized value)", "setting": "oxidized forms of rFSH; Run 2, 260 mg/L, measured WD38, divided by 23.4% (L-cysteine 280 mg/L, run 2)", "value": 0.77}, {"measurement": "% of oxidized forms", "setting": "oxidized forms of rFSH; Run 2, mean concentration 260 mg/L, tested WD30 to WD40, measured WD38", "value": 18.1, "unit": "%"}, {"measurement": "TVC Ratio", "setting": "[1]; Run 2, 260 mg/L, WD30 to WD40", "value": 1.3}]}
